These results are taken from ChEMBL document CHEMBL1133391, “Synthesis and antibacterial activity of 2alpha-functionalized 1beta-methylcarbapenems related to KR-21012” (Bioorg Med Chem Lett, 2000).

Values after ≈ are worked out from the molar mass of the structure shown.

For orientation: MIC means the least concentration at which growth counts as inhibited. As usually defined, the Tmax is the time at which the peak concentration occurs. A word on the half-life: it is how long it takes for the measured level to halve. Low readings indicate rapid decline, high ones slow decline. For orientation: Cmax means the highest concentration seen after dosing.

The subject of one data set is Enterobacter cloacae. Put plainly: Compound was evaluated for in vitro antibacterial activity against Enterobacter cloacae P99 strain by agar dilution method. The format is functional. Background: In agar dilution, organisms are placed on agar that contains the substance at set levels.
Data set [1] concerns Escherichia coli. Put plainly: Compound was evaluated for in vitro antibacterial activity against Escherichia coli 078 strain by agar dilution method. The data set is classed as functional.
The subject of data set [2] is Escherichia coli. Put plainly: Compound was evaluated for in vitro antibacterial activity against Escherichia coli 1507 E strain by agar dilution method. The format is functional.
A further data set has as its system Klebsiella oxytoca. Put plainly: Compound was evaluated for in vitro antibacterial activity against Klebsiella oxytoca 1082 E strain by agar dilution method. The format is functional.
In the next data set the test system is Klebsiella aerogenes. Put plainly: Compound was evaluated for in vitro antibacterial activity against Klebsiella aerogenes 1522 E strain by agar dilution method. The data set is classed as functional.
Data set [3] relates to Pseudomonas aeruginosa. Put plainly: Compound was evaluated for in vitro antibacterial activity against Pseudomonas aeruginosa 1771 strain by agar dilution method. The data set is classed as functional.
The test system of a further data set is Salmonella typhimurium. Put plainly: Compound was evaluated for in vitro antibacterial activity against Salmonella Typhimurium by agar dilution method. The format is functional, Salmonella enterica subsp. enterica serovar Typhimurium. The conditions noted are these: Salmonella enterica.
The test system of a further data set is Streptococcus pyogenes. Put plainly: Compound was evaluated for in vitro antibacterial activity against Streptococcus pyogenes 77A strain by agar dilution method. The data set is classed as functional.
The subject of data set [4] is Staphylococcus aureus. Put plainly: Compound was evaluated for in vitro antibacterial activity against Staphylococcus aureus SG511 strain by agar dilution method. The data set is classed as functional.
A further data set concerns Enterococcus faecium. Put plainly: Compound was evaluated for in vitro antibacterial activity against Streptococcus faecium MD strain by agar dilution method. The format is functional.
The test system of data set [5] is Pseudomonas aeruginosa. Put plainly: Compound was evaluated for in vitro antibacterial activity against Pseudomonas aeruginosa 1771 M strain by agar dilution method. The data set is classed as functional.
Data set [6] has as its system Staphylococcus aureus. Put plainly: Compound was evaluated for in vitro antibacterial activity against Staphylococcus aureus 285 strain by agar dilution method. The data set is classed as functional.
Data set [7] is described as follows: Tmax at a single subcutaneous administration of 40 mg/kg in mice. The data set is classed as ADME, organism-based. Set-up: dose 40 mg/kg, route subcutaneous. The following applies: mouse, in vivo, sc.
Data set [8] is described as follows: Half-life at a single subcutaneous administration of 40 mg/kg in mice. The data set is classed as ADME, organism-based. Set-up: dose 40 mg/kg, route subcutaneous. The conditions noted are these: mouse, in vivo, sc.
Data set [9] is described as follows: Peak concentration at a single subcutaneous administration of 40 mg/kg in mice. Set-up: dose 40 mg/kg, route subcutaneous. The conditions noted are these: mouse, in vivo, sc. The data set is classed as ADME, organism-based.
Data set [10] has as its target T1, Dipeptidase 1 (Sus scrofa) (UniProt P22412).
T1 sequence (whole entry): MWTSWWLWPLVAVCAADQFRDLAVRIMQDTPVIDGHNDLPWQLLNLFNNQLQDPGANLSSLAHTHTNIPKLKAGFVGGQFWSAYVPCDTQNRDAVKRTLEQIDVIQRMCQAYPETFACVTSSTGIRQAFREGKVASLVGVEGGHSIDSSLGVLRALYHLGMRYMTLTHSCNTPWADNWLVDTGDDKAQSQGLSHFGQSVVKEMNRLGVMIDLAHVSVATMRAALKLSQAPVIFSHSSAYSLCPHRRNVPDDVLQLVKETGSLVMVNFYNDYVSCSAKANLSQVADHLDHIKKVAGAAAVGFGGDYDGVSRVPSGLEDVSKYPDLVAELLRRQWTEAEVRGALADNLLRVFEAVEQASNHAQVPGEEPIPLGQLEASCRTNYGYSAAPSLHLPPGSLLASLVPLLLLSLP
Put plainly: Compound was evaluated for DHP-1 stability by using purified porcine renal enzyme. The format is functional.

For data set [11], the system named is Mus musculus. Put plainly: In vivo protective activity administered sc 1 hr after ip Escherichia coli 078 strain infection in mice. The following applies: read-out: PD50. The data set is classed as functional.
Data set [12] has as its system Mus musculus. Put plainly: In vivo protective activity administered sc 1 hr after ip Streptococcus pyogenes 77A strain infection in mice. The data set is classed as functional. The conditions noted are these: read-out: PD50.

As for `CC[C@@H](O)C1=C(C(=O)[O-])N2C(=O)[C@H]([C@@H](C)O)C2[C@H]1C.[Na+]` (stereo partly drawn), the MIC with Enterobacter cloacae is 0.781 µg/mL; in the data set on Escherichia coli [1] it was 0.098 µg/mL; against Escherichia coli [2], 0.098 µg/mL; in the data set on Klebsiella oxytoca, 3.12 µg/mL; in the data set with Klebsiella aerogenes it was 0.391 µg/mL; with Pseudomonas aeruginosa [3], 100 µg/mL. Further, the minimal inhibitory concentration (MIC) was found to be 0.391 µg/mL with Salmonella typhimurium; 0.625 µg/mL in the data set with Streptococcus pyogenes; 0.098 µg/mL against Staphylococcus aureus [4]; 3.12 µg/mL against Enterococcus faecium; 1.56 µg/mL in the data set on Pseudomonas aeruginosa [5]; 0.098 µg/mL against Staphylococcus aureus [6].
Regarding `C[C@@H](O)[C@H]1C(=O)N2C(C(=O)O)=C(S[C@@H]3CN[C@H](C(=O)N(C)C)C3)[C@H](C)[C@H]12` [MEROPENEM], the Tmax in data set [7] was determined as 12.6 min. Further, in data set [8], the half-life is 14.4 min. Further, the highest level in data set [9] (Cmax) was 7600 ng/mL. This molecule returned an Activity in data set [10] of 32. Also, the MIC with Enterobacter cloacae was determined as 0.025 µg/mL (≈ 0.0652 µM); in the data set with Escherichia coli [1], 0.013 µg/mL (≈ 0.0339 µM); with Escherichia coli [2], 0.025 µg/mL (≈ 0.0652 µM); against Klebsiella oxytoca, 0.049 µg/mL (≈ 0.128 µM); in the data set on Klebsiella aerogenes, 0.049 µg/mL (≈ 0.128 µM); in the data set with Pseudomonas aeruginosa [3], 0.361 µg/mL (≈ 0.941 µM). In addition, the MIC in the data set with Salmonella typhimurium is 0.049 µg/mL (≈ 0.128 µM); in the data set with Streptococcus pyogenes, 0.013 µg/mL (≈ 0.0339 µM); in the data set on Staphylococcus aureus [4], 0.013 µg/mL (≈ 0.0339 µM); in the data set with Enterococcus faecium, 6.25 µg/mL (≈ 16.3 µM); in the data set on Pseudomonas aeruginosa [5], 0.049 µg/mL (≈ 0.128 µM); in the data set with Staphylococcus aureus [6], 0.195 µg/mL (≈ 0.509 µM). The results for the ED50 in the data set on Mus musculus [11] and in the data set on Mus musculus [12] were 1.24 mg/kg and 4.6 mg/kg, respectively.
For `CCC(C)[C@@H](O)C1=C(C(=O)[O-])N2C(=O)[C@H]([C@@H](C)O)C2[C@H]1C.[Na+]` (stereo partly drawn), the minimum inhibitory concentration (MIC) against Enterobacter cloacae is 3.12 µg/mL; against Escherichia coli [1], 0.195 µg/mL; in the data set on Escherichia coli [2] it was 0.195 µg/mL; with Klebsiella oxytoca, 3.12 µg/mL; against Klebsiella aerogenes, 3.12 µg/mL; with Pseudomonas aeruginosa [3], 100 µg/mL. In addition, the MIC amounted to 0.195 µg/mL in the data set with Salmonella typhimurium; 0.013 µg/mL against Streptococcus pyogenes; 0.098 µg/mL against Staphylococcus aureus [4]; 1.56 µg/mL against Enterococcus faecium; 1.56 µg/mL against Pseudomonas aeruginosa [5]; 0.098 µg/mL in the data set with Staphylococcus aureus [6].
Turning to `C[C@H]1C([C@@H](O)C2CC2)=C(C(=O)[O-])N2C(=O)[C@H]([C@@H](C)O)C12.[Na+]` (stereo partly drawn), the MIC in the data set with Enterobacter cloacae was found to be 0.781 µg/mL; with Escherichia coli [1], 1.56 µg/mL; in the data set on Escherichia coli [2], 0.195 µg/mL; in the data set on Klebsiella oxytoca it was 6.25 µg/mL; with Klebsiella aerogenes it was 0.781 µg/mL; against Pseudomonas aeruginosa [3] it was 100 µg/mL. Besides, the MIC came to 1.56 µg/mL in the data set on Salmonella typhimurium; 0.098 µg/mL with Streptococcus pyogenes; 0.195 µg/mL in the data set with Staphylococcus aureus [4]; 3.12 µg/mL against Enterococcus faecium; 3.12 µg/mL in the data set on Pseudomonas aeruginosa [5]; 0.781 µg/mL against Staphylococcus aureus [6].
In the case of `C[C@H]1C([C@H](O)C(C)(C)C)=C(C(=O)[O-])N2C(=O)[C@H]([C@@H](C)O)C12.[Na+]` (stereo partly drawn), the MIC came to 6.25 µg/mL in the data set on Enterobacter cloacae; 0.781 µg/mL against Escherichia coli [1]; 0.781 µg/mL in the data set with Escherichia coli [2]; 12.5 µg/mL in the data set on Klebsiella oxytoca; 6.25 µg/mL against Klebsiella aerogenes; 100 µg/mL against Pseudomonas aeruginosa [3]. Besides, the MIC is 1.56 µg/mL against Salmonella typhimurium; 0.049 µg/mL in the data set on Streptococcus pyogenes; 0.391 µg/mL in the data set on Staphylococcus aureus [4]; 12.5 µg/mL in the data set on Enterococcus faecium; 6.25 µg/mL against Pseudomonas aeruginosa [5]; 0.391 µg/mL against Staphylococcus aureus [6].
Turning to `C[C@H]1C([C@H](O)C2CCCC2)=C(C(=O)[O-])N2C(=O)[C@H]([C@@H](C)O)C12.[Na+]` (stereo partly drawn), the minimal inhibitory concentration (MIC) is 6.25 µg/mL against Enterobacter cloacae; 0.195 µg/mL in the data set on Escherichia coli [1]; 0.195 µg/mL against Escherichia coli [2]; 3.12 µg/mL in the data set with Klebsiella oxytoca; 1.56 µg/mL in the data set on Klebsiella aerogenes; 100 µg/mL with Pseudomonas aeruginosa [3]. For the same molecule, the MIC is 0.195 µg/mL against Salmonella typhimurium; 0.013 µg/mL with Streptococcus pyogenes; 0.098 µg/mL against Staphylococcus aureus [4]; 0.781 µg/mL against Enterococcus faecium; 0.781 µg/mL in the data set with Pseudomonas aeruginosa [5]; 0.098 µg/mL in the data set on Staphylococcus aureus [6].
